According to PubChem BioAssay (NCI):
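Values below derive from 48-hour exposures of cells grown in 96-well plates, with endpoints linearly interpolated between the two concentrations bracketing the appropriate inhibition level. Abbreviation: GI50, concentration required for 50% inhibition of growth. At the TGI there is no net growth.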

Legend:
Experiment in all cases: NCI tumour cell line growth inhibition, 48 h
HCT-116 colon = system: HCT-116 colon
IGROV1 ovarian = system: IGROV1 ovarian
MCF7 breast = system: MCF7 breast
MDA-MB-435 = system: MDA-MB-435
OVCAR-5 ovarian = system: OVCAR-5 ovarian
PC-3 prostate = system: PC-3 prostate
RXF 393 renal = system: RXF 393 renal
SK-MEL-28 melanoma = system: SK-MEL-28 melanoma
SK-MEL-5 melanoma = system: SK-MEL-5 melanoma
SK-OV-3 ovarian = system: SK-OV-3 ovarian

Row | Compound | GI50 (HCT-116 colon) | TGI (HCT-116 colon) | GI50 (IGROV1 ovarian) | TGI (IGROV1 ovarian) | GI50 (MCF7 breast) | TGI (MCF7 breast) | GI50 (MDA-MB-435) | TGI (MDA-MB-435) | GI50 (OVCAR-5 ovarian) | TGI (OVCAR-5 ovarian) | GI50 (PC-3 prostate) | TGI (PC-3 prostate) | GI50 (RXF 393 renal) | TGI (RXF 393 renal) | GI50 (SK-MEL-28 melanoma) | TGI (SK-MEL-28 melanoma) | GI50 (SK-MEL-5 melanoma) | TGI (SK-MEL-5 melanoma) | GI50 (SK-OV-3 ovarian) | TGI (SK-OV-3 ovarian)
1 | COc1ccc2c(c1)CC[C@@H]1[C@@H]2CC[C@]2(C)c3c(cc(C(=O)O)c4sccc34)C[C@@H]12 | 11.2 µM | 24.8 µM | 29.7 µM | > 100 µM | 17.2 µM | 59 µM | 18.4 µM | 39.6 µM | 26 µM | 50.1 µM | 10.5 µM | 25.1 µM | 16.5 µM | 36 µM | 15.8 µM | 33.4 µM | 14.7 µM | 28.4 µM | 26 µM | 61.2 µM
2 | CC[C@@H](C(=O)[C@H](C)[C@H](O)[C@@H](C)[C@H]1O[C@H]([C@@H](CC)C(=O)N(CC)CC)CC[C@H]1C)C1O[C@]2(C=C[C@@H](O)[C@]3(CC[C@@](C)([C@H]4CC[C@](O)(CC)[C@H](C)O4)O3)O2)[C@H](C)C[C@@H]1C (stereo not given in full) | 2.9 µM | 12.5 µM | 2.73 µM | 10.8 µM | 2.61 µM | 10.1 µM | 2.81 µM | 9.8 µM | 2.85 µM | 11.1 µM | 2.54 µM | 11.9 µM | 2.06 µM | 5.87 µM | 4.97 µM | 17 µM | 1.76 µM | 3.24 µM | 3.06 µM | 10.1 µM
3 | CCOC(=O)c1cc(C(=O)c2cc(OC)c(OC)c(OC)c2)n2c1ccc1ccccc12 | 0.271 µM | > 100 µM | 0.353 µM | > 100 µM | 0.1 µM | > 100 µM | 0.0367 µM | 0.173 µM | 0.539 µM | > 100 µM | 0.294 µM | > 100 µM | 0.22 µM | 0.81 µM | 1.45 µM | > 100 µM | 0.434 µM | > 100 µM | 1.02 µM | > 100 µM
4 | CCCCCCCCC/C(=N\NC(=O)c1ccncc1)c1ccc(O)c(O)c1O | 0.121 µM | 12.8 µM | 0.184 µM | > 78.1 µM | 0.309 µM | 18.3 µM | 0.456 µM | > 100 µM | 0.765 µM | 78.6 µM | 1.6 µM | > 100 µM | 0.168 µM | 5.2 µM | 0.384 µM | > 100 µM | 0.139 µM | 0.494 µM | 0.246 µM | > 100 µM
5 | C[C@@H](NC(=O)/C(C#N)=C/c1ccc([N+](=O)[O-])cc1)c1ccccc1 | 1.89 µM | 3.79 µM | 2.9 µM | 8.13 µM | 2.41 µM | 7.65 µM | 2.7 µM | 7.63 µM | 1.96 µM | 4.06 µM | 2.34 µM | 6.65 µM | 1.62 µM | 3.04 µM | 1.95 µM | 3.83 µM | 1.94 µM | 3.95 µM | 8.33 µM | 23.3 µM
6 | Cc1cc(O)cc(C)c1/C=C/c1cncc(C(N)=O)c1 | 1.34 µM | > 25 µM | 2.18 µM | > 25 µM | 1.2 µM | > 25 µM | 0.538 µM | 1.77 µM | 12.1 µM | > 25 µM | 5.09 µM | > 25 µM | 2.36 µM | 13 µM | 2.3 µM | > 25 µM | 1.11 µM | > 25 µM | 3.66 µM | > 17.6 µM
7 | N/C(=N/N=C/c1ccccc1)N/N=C\c1ccccc1 | 4.5 µM | > 100 µM | 8.6 µM | > 100 µM | 3.4 µM | > 100 µM | 1.76 µM | 6.61 µM | 19.4 µM | > 100 µM | 6.21 µM | > 100 µM | 2.46 µM | 8.48 µM | 10.7 µM | 33.3 µM | 3.38 µM | 13.3 µM | 6.37 µM | > 100 µM
8 | CCCCCCCCCCCCSC1=C(Cl)C(=O)C(OC)=C(OC)C1=O | 0.508 µM | 11.9 µM | 6.99 µM | 20.7 µM | 0.417 µM | 7.12 µM | 0.653 µM | 10.2 µM | 3.49 µM | 11.7 µM | 1.18 µM | 9.09 µM | 4.51 µM | 23.1 µM | 5.93 µM | 21.8 µM | 0.49 µM | 3.66 µM | 9.78 µM | 27.3 µM
9 | CCNC(=O)Nc1ccc(Oc2ccnc3ccc4c(ccn4C)c23)cc1 | 21.2 µM | > 100 µM | > 100 µM | > 100 µM | 37.9 µM | > 100 µM | > 100 µM | > 100 µM | > 100 µM | > 100 µM | > 100 µM | > 100 µM | 17.9 µM | > 100 µM | 9.33 µM | > 100 µM | 75.5 µM | > 100 µM | 19.4 µM | 56.5 µM
10 | S=C(NCCNC(=S)[S][Sn]([c]1ccccc1)([c]1ccccc1)[c]1ccccc1)[S][Sn]([c]1ccccc1)([c]1ccccc1)[c]1ccccc1 | 0.0127 µM | 0.0315 µM | 0.0429 µM | 0.216 µM | 0.0133 µM | 0.0553 µM | 0.0153 µM | 0.0559 µM | 0.0496 µM | 0.123 µM | 0.0311 µM | 0.153 µM | 0.01 µM | 0.0206 µM | 0.0237 µM | 0.0817 µM | 0.0432 µM | 0.108 µM | 0.0231 µM | 0.0799 µM
